Entries after “also recorded” stand apart in the source; their conditions may differ.
Assays:
[1] = system: LS513 multi-drug resistant colon carcinoma cells; experiment: LS513 multi-drug resistant colon carcinoma xenograft in SCID mice; format: in vivo, human
Procedure: LSS13 multi-drug resistant colon carcinoma cells (1×10^7 cells in 100 μl of PBS) were subcutaneously injected into the right flank of 6-7 weeks old female SCID mice. After the size of tumour reached an approximate volume of […], 8 days post tumour cell injection, SEQ ID NO:1 was administered by bolus infusion into the tail vein every other day at 10 mg/kg. Control animals received saline alone for the same period. Antitumour effect of SEQ ID NO:1 was further compared to that of CPT-11 alone or in combination. CPT-11 was administered i.p. for 5 days at a dose of 20 mg/kg/day. Antitumour activities were estimated by the inhibition of tumour volume, which was measured with caliper. Each point represents mean tumour volume calculated from 10 animals per experimental group. Tumour weights were measured after animals were sacrificed at the end of the treatment. These cells are not resistant to CPT-11 which was used as a positive control.

[2] = system: A2058 human melanoma cells; experiment: A2058 melanoma xenograft in CD-1 nude mice; format: in vivo
Procedure: A2058 human melanoma cells 1×10^7 cells in 100 μl of PBS) were subcutaneously injected into the right flank of 6-7 week old female CD-1 nude mice. A2058 is a metastatic melanoma cell line. After the size of tumour reached an approximate volume of 100 mm^3, 6 days post tumour cell injection, SEQ ID NO:1 was administered by bolus infusion into the tail vein every other day at 10 mg/kg. Control animals received saline alone for the same period. Antitumour effect of SEQ ID NO:1 was further compared to that of dacarbazine (DTIC) alone or that of SEQ ID NO:1 in combination with DTIC. DTIC was administered intravenously for 5 days in a row from day 6-10 at a dose of 80 mg/kg in 100 μl saline. All treatments were stopped at day 24. A day after the last treatment, tumours were excised from the animals and their weights were measured.

Human Renal Carcinoma = experiment: Tumour growth assay, human renal carcinoma in mice; format: in vivo
[3] = system: HCT116 colon cell carcinoma; experiment: Relative colony forming efficiency (Example 17, Table 13); format: cell-based, human; conditions: averages of 2-8 determinations
Procedure, shortened: (§1)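 Antisense phosphorothioates are tested at 0.2 μM unless stated, transfected with DOTMA/DOPE (2.5 μg) for four hours. Colony counts after methylene blue staining give percent inhibition versus vehicle-lipid controls.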

[4] = system: HepG2 hepatocellular carcinoma; experiment: as above; format: cell-based, human; conditions: averages of 2-8 determinations
Procedure, shortened: as §1

[5] = system: T-47D breast ductal carcinoma; experiment: as above; format: cell-based, human; conditions: averages of 2-8 determinations
Procedure, shortened: as §1

[6] = system: MDA PaCa-2 pancreatic cell carcinoma; experiment: as above; format: cell-based, human; conditions: MIA PaCa-2 pancreatic cell carcinoma; averages of 2-8 determinations
Procedure, shortened: as §1

[7] = system: PC-3 prostrate cell adenocarcinoma; experiment: as above; format: cell-based, human; conditions: averages of 2-8 determinations
Procedure, shortened: as §1

A549 lung cell carcinoma = experiment: as above; format: cell-based, human; conditions: averages of 2-8 determinations
Procedure, shortened: as §1

[8] = system: T24 bladder cell carcinoma; experiment: as above; format: cell-based, human; conditions: averages of 2-8 determinations
Procedure, shortened: as §1

[9] = system: MDA-MB-231 breast cell adenocarcinoma; experiment: as above; format: cell-based, human; conditions: averages of 2-8 determinations
Procedure, shortened: as §1

[10] = system: Human Glioblastoma-Astrocytoma; experiment: Tumour growth assay, human glioblastoma-astrocytoma in mice; format: in vivo
[11] = Phase I single agent study of SEQ ID NO:1 in patients with solid tumours or melanoma; format: in vivo, human

GGCTAAATCGCTCCACCAAG (chemistry not given here) [SEQ ID NO: 1, antisense oligonucleotide that hybridizes to the coding region of human ribonucleotide reductase R2 mRNA]
Tumour weight as % of saline control ([1]; LS513 (colon) multi-drug resistant (CPT-11 sensitive), SCID): 49%
antitumour effect (tumour volume, tumour weight) ([1]; SEQ ID NO:1 10 mg/kg every other day, CPT-11 20 mg/kg/day i.p. 5 days): significant delay of tumour growth; also recorded: as effective as CPT-11
Tumour weight as % of saline control ([2]; A2058 (melanoma), Mouse CD-1): 20%
antitumour effect (tumour weight) ([2]; SEQ ID NO:1 10 mg/kg every other day i.v., DTIC 80 mg/kg i.v. 5 days): significant delay of tumour growth; also recorded: superior to the inhibitory effects observed with DTIC alone
Inhibition of tumour size (Human Renal Carcinoma; Human Renal Carcinoma (first entry)): Approximately 90% inhibition of
Inhibition of tumour size (Human Renal Carcinoma; Human Renal Carcinoma^2 (second entry)): Approximately 97% inhibition of
Reduced relative colony forming efficiency, HCT116 (% inhibition of colony forming ability) [3]: 70.46%
Reduced relative colony forming efficiency, HepG2 (% inhibition of colony forming ability) [4]: 75.89%
Reduced relative colony forming efficiency, T-47D (% inhibition of colony forming ability) [5]: 66.12%
Reduced relative colony forming efficiency, MIA PaCa-2 (% inhibition of colony forming ability) [6]: 75.62%
Reduced relative colony forming efficiency, PC-3 (% inhibition of colony forming ability) [7]: 83.23%
Reduced relative colony forming efficiency, A549 (% inhibition of colony forming ability) (A549 lung cell carcinoma): 95.14%
Reduced relative colony forming efficiency, T24 (% inhibition of colony forming ability) [8]: 76.79%
Reduced relative colony forming efficiency, MDA-MB-231 (% inhibition of colony forming ability) [9]: 90.21%
Inhibition of tumour weight [10]: approximately 65%
dose with no evidence of toxicity ([11]; human subjects): 148.0 mg/m^2/day
maximum tolerated dose (MTD) ([11]; patients with solid tumours or melanoma): 222.0 mg/m^2/day
